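All cell lines were grown in 96-well plates and treated with compound for 48 hours. Abbreviation: GI50, concentration required for 50% inhibition of growth.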 Activity calls are given as the source filed them. Cut-off read from the data, not from the text of the source: active = GI50 up to about 1.1 µM and inactive = higher.

What all share (experiment): NCI-60 cell line screen, 48 h
Assay [1] deals with BT-549.
In assay [2] the test system is DLD-1.
The subject of assay [3] is DMS-273.
Assay [4] concerns HOP-18.
Assay [5] deals with LXFL 529.
In assay [6] the test system is SNB-78.
For assay [7], the system named is XF498.
The subject of assay [8] is DMS-114.
Assay [9] has as its system RXF 631.

For `OC1(c2ccc(-c3ccccc3)cc2)c2ccccc2C2=NCCN21` (stereo unspecified), the GI50 in assay [1] was > 100 µM (inactive).

Regarding `N/C(S)=N/N=C/c1ncccc1O`, the GI50 in assay [1] is 3.47 µM (inactive); in assay [2], 2.26 µM (inactive); in assay [3], 0.508 µM (active); in [4] it was 2.25 µM (inactive); in assay [5], 2.75 µM (inactive); in [6] it was 81.8 µM (inactive). The GI50 in assay [7] is 1.51 µM (inactive).

With `N=C(N)NC(=N)Nc1ccc(S(=O)(=O)O)cc1`, in [1], the GI50 is > 100 µM (inactive).

With `CO[C@@H]1[C@H](O)CC[C@]2(CO2)[C@H]1[C@@]1(C)O[C@@H]1CC=C(C)C`, in assay [1], the GI50 is > 200 µM (inactive).

With `c1cncc(CSc2ncnc3[nH]cnc23)c1`, the GI50 in assay [1] was > 100 µM (inactive).

As for `O=C(CC(=O)Nc1ccccc1O)Nc1ccccc1O`, the GI50 in assay [2] is 12.5 µM (inactive); in [8], 1.75 µM (inactive); in assay [3], 25.9 µM (inactive); in assay [4], 19.4 µM (inactive); in [5], 8.91 µM (inactive); in assay [9], 9.79 µM (inactive). Besides, the GI50 in assay [6] was > 100 µM (inactive).

Take `c1cc2c3ccsc3c3sccc3c2s1`: the GI50 in [1] was > 100 µM (inactive).

Regarding `C1CSCCSCCS1`, the GI50 in assay [1] was > 100 µM (inactive).

`CC(=O)c1ccc(NC(=O)/C(Cc2ccccn2)=N/NC(=O)C[N+](C)(C)C)cc1`: the GI50 in assay [2], in assay [8], in assay [3], in [4], in [5] and in assay [9] was > 100 µM (inactive) throughout. Also, in assay [6], the GI50 is > 100 µM (inactive).

`O=C(NCc1cccc2ccccc12)N/N=C\c1ccc(Cl)cc1`: the GI50 in assay [1] was > 100 µM (inactive).

Take `CC(C)OCN1COCN/C1=N/C#N`: the GI50 was 26.4 µM (inactive) in assay [2]; 58.6 µM (inactive) in assay [8]; 37.5 µM (inactive) in [3]; > 100 µM (inactive) in [4]; > 100 µM (inactive) in assay [5]; > 100 µM (inactive) in [9].

In the case of `Cc1nnc2n(c1=O)CCCN2C`, the GI50 in assay [1] is > 100 µM (inactive).

Consider `O=C(NCCNCCNCCNC(=O)c1cc(-c2ccccc2)nc2ccccc12)c1cc(-c2ccccc2)nc2ccccc12`, for which, in assay [1], the GI50 is 7.52 µM (inactive).

For `COc1cc(C(=O)OCCn2[nH]c(-c3ccc(Cl)cc3)nc2=S)cc(OC)c1OC`, the GI50 in assay [1] was 31.3 µM (inactive).

As to `NC(=O)C#CC#CC#CCO`, the GI50 was 0.807 µM (active) in [2]; 2.05 µM (inactive) in assay [8]; 1.98 µM (inactive) in assay [3]; 1.82 µM (inactive) in assay [4]; 1.14 µM (inactive) in [5]; 2.86 µM (inactive) in [6].

On to `COc1c2cc(C(C)(C)C)cc1CSCc1cc(C(C)(C)C)cc(c1OC)CCCCC2`, for which the GI50 in assay [1] is 21.6 µM (inactive).

With `CC(C)C(C)C(O)C(O)C(C)C1CCC2C3COC(=O)C4CC(O)C(O)CC4(C)C3CCC12C` (stereo unspecified), the GI50 in assay [1] was 88.3 µM (inactive).

As for `CCOP(=O)(CC1CC(O)(CNc2cc(Cl)nc(N)n2)C1)OCC` (stereo unspecified), the GI50 in [1] is > 100 µM (inactive).

Consider `CC(C)OP(=O)(OC(C)C)/C(N)=N/Nc1ccc([N+](=O)[O-])cc1`, for which the GI50 in assay [2] was > 100 µM (inactive); in assay [8] it was 57.8 µM (inactive); in assay [3] it was > 100 µM (inactive); in assay [5], 66.2 µM (inactive); in assay [6], 50.7 µM (inactive); in [7], 23.5 µM (inactive).

Consider `CN(C)/C=N\c1nc(=O)n(C2CCC(CO)O2)cc1F` (stereo unspecified), for which the GI50 was > 100 µM (inactive) in assay [2]; > 100 µM (inactive) in assay [3]; > 100 µM (inactive) in [4]; > 100 µM (inactive) in [5]; 95.9 µM (inactive) in [6]; > 100 µM (inactive) in [7].

`O=C1OS2(OC(=O)c3cccc4cccc2c34)c2ccccc21` (stereo unspecified): the GI50 in assay [1] was > 100 µM (inactive).

Turning to `Cc1c(C)c(C)c(-n2[nH]c(=O)n(C)c2=O)c(C)c1C`, in [1], the GI50 is > 100 µM (inactive).

On to `Nc1ccc2c(O)cc(O)nc2n1`, for which the GI50 in assay [1] is > 100 µM (inactive).

Consider `CC(C(=O)ON1C(=O)CCC1=O)c1ccc(C(=O)c2ccccc2)s1` (stereo unspecified), for which the GI50 in assay [1] is > 100 µM (inactive).

Turning to `O=[N+]([O-])C1Cc2ccccc2OC1c1ccccc1` (stereo unspecified), the GI50 in [2] was 35.3 µM (inactive); in [8] it was > 10 µM (inactive); in [3], 60.4 µM (inactive); in assay [4], > 100 µM (inactive); in [5], > 100 µM (inactive); in assay [9] it was 62.2 µM (inactive). For the same compound, the GI50 in assay [6] was 21.4 µM (inactive).

As for `O=C(/C=C(\O)C(=O)O)/C=C(\O)c1ccccc1`, the GI50 in assay [2] was > 4.65 µM (inactive); in assay [3], > 4.65 µM (inactive); in [4], 1 µM (active); in assay [5] it was > 4.65 µM (inactive); in assay [6], > 100 µM (inactive); in assay [7], > 100 µM (inactive).

Consider `CC(C)(Cl)C(Cl)CC/C(CBr)=C(\Cl)CCl` (stereo unspecified), for which the GI50 in assay [1] is 1.84 µM (inactive).

Regarding `CNc1ccc([N+](=O)[O-])c2c(NCCCN(C)C)ccnc12`, the GI50 in assay [8] is > 100 µM (inactive); in [3], > 100 µM (inactive); in assay [6], 7.8 µM (inactive); in [7] it was > 100 µM (inactive).

As to `O=S(=O)(c1cc(Cl)ccc1Cl)N1CCN(c2ccc(Cl)c(Cl)c2)CC1`, the GI50 in assay [1] is 33.3 µM (inactive).

Take `CC(C)C1(Cl)CCC2C3(C)CCCC(C)(C(=O)O)C3CC(Cl)C2(Cl)C1Cl` (stereo unspecified): in [1], the GI50 was 48.8 µM (inactive).

As to `C#CCNC(CCCNC(=N)N)C(=O)O` (stereo unspecified), in assay [1], the GI50 was > 100 µM (inactive).

On to `CC[n+]1c(/C=C/c2ccc(N(CCCl)CCCl)cc2)ccc2cc(NC(=O)/C=C/c3ccccc3)ccc21`, for which the GI50 in assay [1] is 0.628 µM (active); in assay [2] it was 0.628 µM (active); in assay [8], 0.52 µM (active); in [4] it was 2.62 µM (inactive); in assay [5], 0.357 µM (active); in [6], 1.51 µM (inactive). In addition, the GI50 in [7] was 0.205 µM (active).

On to `CC1(C)OCC2OC(n3cnc4c(N)nc(Cl)nc43)C(OS(C)(=O)=O)C2O1` (stereo unspecified), for which the GI50 in assay [1] is > 100 µM (inactive).

`O=c1oc2ccc3ccccc3c2cc1-c1nc2ccccc2s1`: in [1], the GI50 is > 100 µM (inactive).

On to `Cc1cccc(C)c1NC(=S)NC=C(C(N)=O)C(N)=O`, for which the GI50 in assay [1] was > 100 µM (inactive).

As for `CC1=NN(c2cccc(Cl)c2)C2(SCC(=O)N2c2nc3ccccc3s2)/C1=C\c1cccs1` (stereo unspecified), in assay [1], the GI50 was 17.6 µM (inactive).

With `COc1ccc(C2SC(=N)Nc3c2c(C)nn3C(=O)c2ccccc2O)cc1OC` (stereo unspecified), the GI50 in [1] is 8.91 µM (inactive).

As to `Cc1ccc(S(=O)(=O)NC(=O)NNc2ccc(F)cc2)cc1`, the GI50 in assay [1] is > 31.6 µM (inactive).

In the case of `O=C(O)C1CCCN1Cc1cc2ccccc2c2ccccc12` (stereo unspecified), the GI50 in assay [1] is > 100 µM (inactive).

In the case of `COC(=O)C1=C(c2ccc3c(c2)OCO3)OC(c2cc(OC)c(OC)c(OC)c2)C1` (stereo unspecified), the GI50 in assay [2] is 3.58 µM (inactive); in assay [8] it was 2.49 µM (inactive); in assay [3], 1.89 µM (inactive); in assay [4], 16.3 µM (inactive); in assay [5] it was 4.79 µM (inactive); in [6], 10.4 µM (inactive). The GI50 in assay [7] is 14.5 µM (inactive).

As to `c1ccc(C2N3CCCCC3[C@@H]3c4[nH]c5ccccc5c4CCN23)nc1` (stereo partly specified), the GI50 in [2] is > 100 µM (inactive); in assay [8] it was 27.4 µM (inactive); in assay [3], > 100 µM (inactive); in assay [4], > 100 µM (inactive); in assay [5] it was > 100 µM (inactive); in [9], > 100 µM (inactive). In assay [6], the GI50 is 49.7 µM (inactive).

Take `O=c1c2cc([N+](=O)[O-])ccc2oc2nc3n(c(=O)c12)CCCS3`: the GI50 in assay [1] was > 100 µM (inactive).

For `O=C(O)[C@H](c1ccccc1)[C@@H](C(=O)O)c1ccccc1`, the GI50 in assay [1] was > 100 µM (inactive).

`Cc1nn(C)c(=O)c2nn(-c3ccccc3)c(C)c12`: the GI50 in [2], in assay [8], in [3], in assay [4], in assay [5] and in assay [6] was > 100 µM (inactive) in each case.

As for `CCN1C/C(=C\c2ccc(Cl)cc2)c2nc(N)c(C#N)c(-c3ccc(Cl)cc3)c2C1`, in assay [1], the GI50 was > 100 µM (inactive).

Take `Oc1ccc2c(c1)OCC1c3ccccc3OC21` (stereo unspecified): the GI50 in assay [1] was 55.2 µM (inactive).

With `Nc1nc(Cl)c(CO)c(NCC2(CO)CC(CCc3ccccc3)C2)n1` (stereo unspecified), in assay [1], the GI50 was 15.4 µM (inactive).

As for `CCOC(=O)[C@@]12C(C)=CC(=O)O[C@]1(C)C1C(=O)NC(=O)C12` (stereo partly specified), the GI50 is > 100 µM (inactive) in assay [2]; > 100 µM (inactive) in assay [8]; > 100 µM (inactive) in [3]; 31.4 µM (inactive) in assay [4]; > 100 µM (inactive) in [5]; > 100 µM (inactive) in assay [9]. Moreover, in assay [6], the GI50 was > 100 µM (inactive).

Take `CC(C)c1cccc(C(C)C)c1NC(=O)/C(CC(=O)CC(c1ccccc1)c1c(O)c2ccccc2oc1=O)=N/O` (stereo unspecified): in [1], the GI50 is > 100 µM (inactive).

With `Cc1c2cccc-2c2cc(O)c3ccccc3c2n1-c1ccc(N(C)C)cc1`, the GI50 in assay [1] is 10.7 µM (inactive).

With `Nc1nc(N)c2nc(CN(C=O)c3ccc(C(=O)O)cc3)cnc2n1`, the GI50 in assay [1] is > 26.6 µM (inactive).

Turning to `[N-]=[N+]=NC1C2CC3C4CC5CC3[C@H](C2)C(C5)C41` (stereo partly specified), the GI50 in [2] was > 100 µM (inactive); in assay [8], > 100 µM (inactive); in assay [3], > 100 µM (inactive); in [4] it was 17.1 µM (inactive); in [5], > 100 µM (inactive); in assay [7], > 100 µM (inactive).

For the compound `CC(=O)OC1CC2C(=O)C(=O)C1(C)C2(C)C` (stereo unspecified), the GI50 in [1] was > 100 µM (inactive).

In the case of `CC(=O)CC(=O)Nn1c(-c2cccs2)nc2ccc(I)cc2c1=O`, in assay [1], the GI50 is > 35.9 µM (inactive).

Take `CC(=O)O[C@H]1C(=O)[C@@]2(C)[C@H]([C@H](OC(=O)c3ccccc3)[C@]3(O)C[C@H](OC(=O)[C@H](O)[C@@H](NC(=O)C(C)(C)C)c4ccccc4)C(C)=C1C3(C)C)[C@]1(OC(C)=O)CO[C@@H]1C[C@@H]2O`: the GI50 in assay [1] is 0.342 µM (active).

For the origin of these results see ChEMBL document CHEMBL1201862, “PubChem BioAssay data set” (2004).
